Results reported in patent US12721835B2, “Anticoccidial composition comprising violacein, and use thereof” (CJ CHEILJEDANG CORPORATION, priority 2020, dated 2026).

Assays:
Eimeria tenella [1] = assay: Intracellular protozoan propagation inhibition in MDBK cells (ITS-1 PCR); type: cell-based; settings: read-out: Intracellular protozoan propagation inhibitory effect (%)
Description: (§1) In the present example, using MDBK cell line which is a representative animal cell known to cause Eimeria infection and propagation, the inhibition ability of intracellular protozoan invasion and intracellular protozoal propagation of the violacein was investigated.
100,000 MDBK cells (purchased from ATCC) were aliquoted in a 24-well plate, and then incubated at a temperature of 37° C. for 12 hours. The protozoan of Eimeria tenella was obtained similar to the method of Example 3 above. 200,000 protozoa per one well were added to wells in which cells were aliquoted, and cultured at a temperature of 41° C. for 24 hours, and then the cells were washed using PBS solution twice to remove protozoa which were not attached to the cells. Each material (violacein and anticoccidial agents, salinomycin, diclazuril and gallic acid) was treated to the cells by concentration, and further cultured at a temperature of 41° C. for 24 hours. A negative control group is a MDBK cell infected by protozoa, and a positive control group means a group in which salinomycin and diclazuril solution was incubated with the Eimeria tenella protozoan. After removing the cells and protozoa inside the cells through pipetting, DNA was extracted from the cells, and PCR was performed using E. tenella ITS-1 (Internal transcribed spacer-1) gene-specific primers. The sequences of the used primers were described in Table 9 above.
The intracellular protozoan propagation inhibition rate (%) through treatment of the material was calculated by comparing Ct values in the material treatment groups compared to the negative control group, and the result was shown in FIG. 3 and Table 10.

[2] = tested on: Eimeria tenella, Eimeria acervulina, and Eimeria maxima; assay: In vivo anticoccidial activity upon complex inoculation of 3 kinds of protozoa (broilers, formulated feed); parameters: Oocyst index: scale not given here; settings: 3 kinds infection; for Lesion index: lesion score x 10; for ACI: out of 200 points; for Lesion score: sum of duodenum, jejunum and appendix; for RWG(%): vs non-infected negative control
Description: An in vivo anticoccidial efficacy evaluation test was performed in an animal experiment facility in Chungcheongnam-do, South Korea. One-day-old male Ross broilers were individually weighed and randomly divided into groups to use in an experiment. Matters and conditions for experimental design were described in Table 5.
A breeding farm was managed according to the Korean poultry breeding management guidelines. Cages and the breeding farm were cleaned and disinfected before starting the test. The temperature of […] and the humidity of 40 to 50% of the breeding farm were maintained, and it was continuously monitored.
The feed was mixed in Neobase, and each material (salinomycin (Cheilbio Cheilsalino-60 product), violacein (CJ Cheiljedang)) was added to the feed, respectively, at a concentration described in Table 6 below to be self-mixed. Antibiotics and supplements were not used in general feed and mixed feed, and no anticoccidial agent other than each material was added. Broilers were fed ad libitum throughout the experiment period. After putting 8 1-day-age broilers in cages randomly placed for each of the control group or test group and breeding, general feed (Al-choi product) was fed for 7 days, and then the mixed feed prepared above was ingested by dividing by control group or test group.
The feed formulation administered to the control group (negative control group or positive control group) and test group and whether coccidiosis was induced by three kinds of protozoa were described in Table 6 below.
Coccidiosis induction was performed by oral inoculation (challenge inoculation) in an oral tube type of 10,000, 50,000, 50,000 oocysts (eggs) with over 90% mature (sporulation) Eimeria tenella, Eimeria acervulina, and Eimeria maxima per one individual to 14-day-old broilers.
The anticoccidial efficacy by test group designed in Example 2-2 above was shown as an anticoccidial index (ACI), and the anticoccidial index was calculated by the similar method to Example 1-3 above. However, in the present example, the protozoa of Eimeria tenella, Eimeria acervulina, and Eimeria maxima were challenge inoculated, so the lesion score was calculated by summing the scores for each of the duodenum, jejunum and appendix, respectively, differently from Example 1-3.

Eimeria tenella [3] = assay: Cell invasion inhibition of protozoa in MDBK cells (ITS-1 PCR); type: cell-based; settings: read-out: Cell invasion inhibitory effect of protozoa (%)
Description: as §1
100,000 MDBK cells (purchased from ATCC) were aliquoted in a 24-well plate, and then incubated at a temperature of 37° C. for 12 hours. The protozoan of Eimeria tenella was obtained similar to the method of Example 3 above. 200,000 protozoa per one well were added to wells in which cells were aliquoted, and each material (violacein and anticoccidial agents, salinomycin, diclazuril and gallic acid) was treated to the cells by concentration, and cultured at a temperature of 41° C. for 24 hours. A negative control group is a MDBK cell infected by protozoa of Eimeria tenella, and a positive control group means a group in which salinomycin, diclazuril or gallic acid solution was incubated with the Eimeria tenella protozoan. […] After removing the cells and protozoa inside the cells through pipetting, DNA was extracted from the cells, and PCR was performed using E. tenella ITS-1 (Internal transcribed spacer-1) gene-specific primers. The sequences of the used primers were described in Table 9 below.
Ct values before/after washing for each material were compared and corrected with the ΔCt value of the negative control group to calculate the cell invasion inhibition rate (%) of the protozoa through treatment of each material, and the result was shown in FIG. 3 and Table 10 below.

SMILES: CC[C@@H](C(=O)[C@@H](C)[C@@H](O)[C@H](C)[C@@H]1O[C@@H]([C@@H](CC)C(=O)O)CC[C@@H]1C)[C@H]1O[C@]2(C=C[C@@H](O)[C@]3(CC[C@@](C)([C@H]4CC[C@](O)(CC)[C@H](C)O4)O3)O2)[C@H](C)C[C@@H]1C [Salinomycin, salinomycin, reference compound]
- inhibition at 5 ppm (Eimeria tenella [1]; MDBK, 24 h): 32.2%
- inhibition at 10 ppm (Eimeria tenella [1]; MDBK, 24 h): 34.8%
- ADG(g/d) after challenge inoculation ([2]; feed 60 ppm): 46.6 g/day
- Oocyst excretion amount/g ([2]; feed 60 ppm): 540000 g⁻¹
- Oocyst index ([2]; feed 60 ppm): 20.0
- Survival rate after challenge inoculation (%) ([2]; feed 60 ppm): 100%
- Lesion index ([2]; feed 60 ppm): 55
- ACI ([2]; feed 60 ppm): 130
- Lesion score ([2]; feed 60 ppm): 5.5
- RWG(%) ([2]; feed 60 ppm): 105.1%
- inhibition at 5 ppm (Eimeria tenella [3]; MDBK, 24 h): 50.1%
- inhibition at 10 ppm (Eimeria tenella [3]; MDBK, 24 h): 56.4%

SMILES: O=C1N=c2ccccc2=C1c1cc(-c2c[nH]c3ccc(O)cc23)[nH]c1O [Violacein, 3-(2-(5-Hydroxyindol-3-yl)-5-oxo-2-pyrrolin-4-ylidene)-2-indolinone]
- inhibition at 0.5 ppm (Eimeria tenella [1]; MDBK cells, 0.5 ppm, treated after invasion, 24 hours): 53.7%
- inhibition at 1 ppm (Eimeria tenella [1]; MDBK cells, 1 ppm, treated after invasion, 24 hours): 45.8%
- ADG(g/d) after challenge inoculation ([2]; feed 10 ppm): 40.4 g/day
- Oocyst excretion amount/g ([2]; feed 10 ppm): 680000 g⁻¹
- Oocyst index ([2]; feed 10 ppm): 31.4
- Survival rate after challenge inoculation (%) ([2]; feed 10 ppm): 100%
- Lesion index ([2]; feed 10 ppm): 51
- ACI ([2]; feed 10 ppm): 109
- Lesion score ([2]; feed 10 ppm): 5.1
- RWG(%) ([2]; feed 10 ppm): 91.1%
- ADG(g/d) after challenge inoculation ([2]; feed 15 ppm): 45.2 g/day
- Oocyst excretion amount/g ([2]; feed 15 ppm): 380000 g⁻¹
- Oocyst index ([2]; feed 15 ppm): 15.7
- Survival rate after challenge inoculation (%) ([2]; feed 15 ppm): 100%
- Lesion index ([2]; feed 15 ppm): 31
- ACI ([2]; feed 15 ppm): 155
- Lesion score ([2]; feed 15 ppm): 3.1
- RWG(%) ([2]; feed 15 ppm): 102.0%
- ADG(g/d) after challenge inoculation ([2]; feed 20 ppm): 42.1 g/day
- Oocyst excretion amount/g ([2]; feed 20 ppm): 1.56e+06 g⁻¹
- Oocyst index ([2]; feed 20 ppm): 22.9
- Survival rate after challenge inoculation (%) ([2]; feed 20 ppm): 100%
- Lesion index ([2]; feed 20 ppm): 40
- ACI ([2]; feed 20 ppm): 132
- Lesion score ([2]; feed 20 ppm): 4.0
- RWG(%) ([2]; feed 20 ppm): 95%
- inhibition at 0.5 ppm (Eimeria tenella [3]; MDBK cells, 0.5 ppm, 41° C. 24 hours): 59.5%
- inhibition at 1 ppm (Eimeria tenella [3]; MDBK cells, 1 ppm, 41° C. 24 hours): 78.6%
